We go through 26 compounds from ChEMBL document CHEMBL3785000, “Antitubercular Lanostane Triterpenes from Cultures of the Basidiomycete Ganoderma sp. BCC 16642” (J Nat Prod, 2016).

Assay [1] has as its system Mycobacterium tuberculosis. Description: Antitubercular activity against Mycobacterium tuberculosis H37Ra infected in African green monkey Vero cells measured daily for 8 days by green fluorescent protein microplate assay. In kind it is functional. The following applies: 192 h.
Another assay concerns Vero. In words: Cytotoxicity against African green monkey Vero cells by green fluorescent protein microplate assay. The settings on record: Chlorocebus sabaeus. In kind it is cell-based.

Values after ≈ are worked out from the molar mass of the structure shown.

In assay [1], `CC(=O)O[C@@H](C/C=C(\C)C(=O)O)[C@@H](C)[C@H]1C[C@H](OC(C)=O)[C@@]2(C)C3=C(CC[C@]12C)[C@@]1(C)CCC(=O)C(C)(C)[C@@H]1C[C@H]3O` showed an MIC of over 50 µg/mL. This compound registered a concentration for half-maximal inhibition (IC50) in the assay with Vero of over 85 µM.

Turning to `C/C(=C\CC[C@@H](C)[C@H]1C[C@H](O)[C@@]2(C)C3=CC[C@H]4C(C)(C)C(=O)CC[C@]4(C)C3=CC[C@]12C)C(=O)O`, the MIC in assay [1] turned out to be 50 µg/mL (≈ 107 µM). Besides, the IC50 with Vero was over 107 µM.

`CO[C@@H]1C[C@H]2C(C)(C)[C@@H](OC(C)=O)CC[C@]2(C)C2=C1[C@]1(C)[C@@H](OC(C)=O)C[C@H]([C@H](C)[C@H](C/C=C(\C)C(=O)O)OC(C)=O)[C@@]1(C)CC2` registered a minimum inhibitory concentration (MIC) in assay [1] of 12.5 µg/mL (≈ 19.4 µM). Also, in the assay with Vero, half-maximal inhibition (IC50) required 26 µM.

`CC(=O)O[C@@H]1CC[C@]2(C)C3=CC[C@]4(C)[C@@H]([C@H](C)CC/C=C(\C)C(=O)O)CC[C@@]4(C)C3=CC[C@H]2C1(C)C` returned a minimal inhibitory concentration (MIC) in assay [1] of over 50 µg/mL. The compound further yielded an IC50 with Vero of 89 µM.

In assay [1], `CC(=O)O[C@@H](C/C=C(\C)C(=O)O)[C@@H](C)[C@H]1CC[C@@]2(C)C3=CC[C@H]4C(C)(C)[C@@H](OC(C)=O)CC[C@]4(C)C3=CC[C@]12C` returned a minimal inhibitory concentration (MIC) of 12.5 µg/mL (≈ 22.5 µM). Besides, the 50% inhibitory concentration (IC50) in the assay on Vero is 32 µM.

For `CC(=O)O[C@@H](C/C=C(\C)C(=O)O)[C@@H](C)[C@H]1C[C@H](OC(C)=O)[C@@]2(C)C3=C(CC[C@]12C)[C@@]1(C)CC[C@H](OC(C)=O)C(C)(C)[C@@H]1C[C@H]3O`, the minimum inhibitory concentration (MIC) in assay [1] is 3.13 µg/mL (≈ 4.96 µM). This compound also had a half-inhibitory concentration (IC50) in the assay on Vero of 28 µM.

With `Cc1c2ccncc2c(C)c2c1[nH]c1ccccc12` [ELLIPTECINE], in the assay with Vero, half-maximal inhibition (IC50) was put at 3.3 µM.

Compound `CC(=O)O[C@@H](C/C=C(\C)C(=O)O)[C@@H](C)[C@H]1C[C@H](OC(C)=O)[C@@]2(C)C3=C(CC[C@]12C)[C@@]1(C)CCC(=O)C(C)(C)[C@@H]1CC3` yielded a minimal inhibitory concentration (MIC) in assay [1] of over 50 µg/mL. In addition, the concentration for half-maximal inhibition (IC50) in the assay on Vero is 86 µM.

`CC(=O)O[C@@H](C/C=C(\C)C(=O)O)[C@@H](C)[C@H]1C[C@H](O)[C@@]2(C)C3=CC[C@H]4C(C)(C)C(=O)CC[C@]4(C)C3=CC[C@]12C` registered a minimum inhibitory concentration (MIC) in assay [1] of over 50 µg/mL. For the same compound, in the assay on Vero, the IC50 was over 95 µM.

With `CC(=O)O[C@@H](C/C=C(\C)C(=O)O)[C@@H](C)[C@H]1CC[C@@]2(C)C3=C(CC[C@]12C)[C@@]1(C)CCC(=O)C(C)(C)[C@@H]1CC3`, in assay [1], the MIC is over 50 µg/mL. Moreover, the half-maximal inhibitory concentration (IC50) with Vero was 93 µM.

`CO[C@@H]1C[C@H]2C(C)(C)C(=O)CC[C@]2(C)C2=C1[C@]1(C)CC[C@H]([C@H](C)[C@H](C/C=C(\C)C(=O)O)OC(C)=O)[C@@]1(C)CC2` had a minimum inhibitory concentration (MIC) in assay [1] of 50 µg/mL (≈ 92.1 µM). The compound further had an IC50 with Vero of 36 µM.

Take `NNC(=O)c1ccncc1` [ISONIAZID]: the MIC in assay [1] came to 0.094 µg/mL (≈ 0.685 µM).

`CO[C@@H]1C[C@H]2C(C)(C)[C@@H](OC(C)=O)CC[C@]2(C)C2=C1[C@]1(C)[C@@H](O)C[C@H]([C@H](C)CC/C=C(\C)C(=O)O)[C@@]1(C)CC2` showed an MIC in assay [1] of 50 µg/mL (≈ 91.8 µM). In the assay on Vero, this compound yielded an IC50 of 32 µM.

The compound `CC(=O)O[C@@H](C/C=C(\C)C(=O)O)[C@@H](C)[C@H]1C[C@H](OC(C)=O)[C@@]2(C)C3=CC[C@H]4C(C)(C)[C@@H](OC(C)=O)CC[C@]4(C)C3=CC[C@]12C` yielded an MIC in assay [1] of 0.781 µg/mL (≈ 1.27 µM). Besides, the IC50 in the assay with Vero amounted to 16 µM.

In assay [1], `CC(=O)O[C@@H](C/C=C(\C)C(=O)O)[C@@H](C)[C@H]1CC[C@@]2(C)C3=C(CC[C@]12C)[C@@]1(C)CCC(=O)C(C)(C)[C@@H]1CC3=O` yielded an MIC of 50 µg/mL (≈ 94.9 µM). Further, the IC50 in the assay on Vero was 91 µM.

For `CC(=O)O[C@@H](C/C=C(\C)C(=O)O)[C@@H](C)[C@H]1C[C@H](OC(C)=O)[C@@]2(C)C3=C(CC[C@]12C)[C@@]1(C)CC[C@H](OC(C)=O)C(C)(C)[C@@H]1CC3`, 3.13 µg/mL (≈ 5.09 µM) was the least that counted as inhibitory in assay [1] (MIC). In the assay with Vero, this compound came in with a half-maximal inhibitory concentration (IC50) of 15 µM.

Consider `CC(=O)O[C@@H](C/C=C(\C)C(=O)O)[C@@H](C)[C@H]1C[C@H](OC(C)=O)[C@@]2(C)C3=CC[C@H]4C(C)(C)[C@H](OC(C)=O)CC[C@]4(C)C3=CC[C@]12C` [GANODERIC ACID T], for which it took 6.25 µg/mL (≈ 10.2 µM) to inhibit growth in assay [1] (MIC). In addition, the half-maximal inhibitory concentration (IC50) in the assay on Vero was determined as 28 µM.

The compound `CC(=O)O[C@H]1CC[C@]2(C)C3=C([C@H](O)C[C@H]2C1(C)C)[C@]1(C)[C@@H](OC(C)=O)C[C@H]([C@H](C)CC/C=C(\C)C(=O)O)[C@@]1(C)CC3` came in with a minimal inhibitory concentration (MIC) in assay [1] of 1.56 µg/mL (≈ 2.72 µM). In the assay with Vero, 32 µM corresponded to half-maximal inhibition (IC50).

In the case of `CO[C@@H]1C[C@H]2C(C)(C)[C@@H](OC(C)=O)CC[C@]2(C)C2=C1[C@]1(C)CC[C@H]([C@H](C)[C@H](C/C=C(\C)C(=O)O)OC(C)=O)[C@@]1(C)CC2`, 25 µg/mL (≈ 42.6 µM) was the least that counted as inhibitory in assay [1] (MIC). In the assay on Vero, this compound came in with a half-inhibitory concentration (IC50) of 28 µM.

Turning to `CC(=O)O[C@H]1CC[C@]2(C)C3=C([C@H](O)C[C@H]2C1(C)C)[C@]1(C)CC[C@H]([C@H](C)CC/C=C(\C)C(=O)O)[C@@]1(C)CC3`, the minimal inhibitory concentration (MIC) in assay [1] stood at 25 µg/mL (≈ 48.6 µM). The concentration for half-maximal inhibition (IC50) in the assay with Vero worked out at 72 µM.

Regarding `CC(=O)O[C@@H](C/C=C(\C)C(=O)O)[C@@H](C)[C@H]1CC[C@@]2(C)C3=CC[C@H]4C(C)(C)C(=O)CC[C@]4(C)C3=CC[C@]12C`, in assay [1], the MIC is over 50 µg/mL. Moreover, the IC50 in the assay with Vero was 35 µM.

In assay [1], `CC(=O)O[C@@H](C/C=C(\C)C(=O)O)[C@@H](C)[C@H]1C[C@H](OC(C)=O)[C@@]2(C)C3=C(CC[C@]12C)[C@@]1(C)CC[C@H](O)C(C)(C)[C@@H]1CC3` returned an MIC of 50 µg/mL (≈ 87.3 µM). The same compound showed a concentration for half-maximal inhibition (IC50) in the assay with Vero of 30 µM.

With `CC(=O)O[C@@H](C/C=C(\C)C(=O)O)[C@@H](C)[C@H]1CC[C@@]2(C)C3=C(CC[C@]12C)[C@@]1(C)CC[C@@H](OC(C)=O)C(C)(C)[C@@H]1CC3=O`, the MIC in assay [1] is over 50 µg/mL. Besides, in the assay on Vero, the IC50 amounted to 33 µM.

In assay [1], `CC(=O)O[C@@H](C/C=C(\C)C(=O)O)[C@@H](C)[C@H]1CC[C@@]2(C)C3=CC[C@H]4C(C)(C)[C@H](O)CC[C@]4(C)C3=CC[C@]12C` had an MIC of 50 µg/mL (≈ 97.5 µM). Moreover, the IC50 with Vero is over 98 µM.

On to `CC(=O)O[C@H]1CC[C@]2(C)C3=C(CC[C@H]2C1(C)C)[C@]1(C)[C@@H](OC(C)=O)C[C@H]([C@H](C)CC/C=C(\C)C(=O)O)[C@@]1(C)CC3`, for which the MIC in assay [1] is 0.781 µg/mL (≈ 1.4 µM). In the assay on Vero, this compound displayed an IC50 of 22 µM.

In assay [1], `CC(=O)O[C@@H](C/C=C(\C)C(=O)O)[C@@H](C)[C@H]1CC[C@@]2(C)C3=C(CC[C@]12C)[C@@]1(C)CCC(=O)C(C)(C)[C@@H]1C[C@H]3O` had an MIC of over 50 µg/mL. Besides, in the assay on Vero, the IC50 was over 95 µM.

In general, MIC refers to the smallest concentration in the dilution series that meets the test's criterion for growth inhibition. In general, IC50 refers to the concentration that gives 50% inhibition.
